One test deals with Human α4β2 (Homo sapiens, UniProt P17787+P43681). Nature of the test: Binding at human α4β2 (Ki); method not described.
Another test concerns the target α4β2 nAChR Subtype (Rattus norvegicus, UniProt P09483+P12390). As to the kind of experiment: Radioligand binding at α4β2 nAChR subtype, inhibition of [3H]nicotine binding, rat cerebral cortex membranes. To be noted: [3H]nicotine 5 nM. As to the method: The [^3H]nicotine (Specific Activity=81.5 Ci/mmol) was obtained from NEN Research Products. The binding of [^3H]nicotine was measured using a 3 h incubation at 4° C. […] Each filter was washed with ice-cold buffer (3×1 mL).
Each concentration was replicated in triplicate.

The target in a further test is α7 nAChR Subtype (Rattus norvegicus, UniProt Q05941). As to the kind of experiment: Radioligand binding at α7 nAChR subtype, inhibition of [3H]MLA binding, rat hippocampus membranes (HTS at 5 μM, then Ki). As to conditions: for inhibition at 5 µM: read-out: α7 HTS outcome (α7 Ki).
α7 nAChR Subtype, sequence (Q05941 23-502): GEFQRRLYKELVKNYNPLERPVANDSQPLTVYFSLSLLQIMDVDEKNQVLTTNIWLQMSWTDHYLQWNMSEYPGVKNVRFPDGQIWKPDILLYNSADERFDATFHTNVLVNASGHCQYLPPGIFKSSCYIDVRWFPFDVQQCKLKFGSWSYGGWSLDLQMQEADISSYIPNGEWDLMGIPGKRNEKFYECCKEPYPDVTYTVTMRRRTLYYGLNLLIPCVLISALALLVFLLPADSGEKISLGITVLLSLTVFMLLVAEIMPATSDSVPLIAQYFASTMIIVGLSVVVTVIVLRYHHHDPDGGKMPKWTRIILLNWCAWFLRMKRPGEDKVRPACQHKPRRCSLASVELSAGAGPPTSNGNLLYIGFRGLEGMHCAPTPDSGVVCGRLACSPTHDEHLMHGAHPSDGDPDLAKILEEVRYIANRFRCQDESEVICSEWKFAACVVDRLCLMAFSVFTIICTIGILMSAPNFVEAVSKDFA
The mark [1] stands for this setting: read-out: α7 Ki, [3H]MLA 5 nM, rat hippocampus.

Counter-ions that a name gives are not always drawn. Like-named read-outs stand apart in the source and are kept apart here.

The Ki is the dissociation constant of the complex between target and ligand, obtained from inhibition or displacement.

α4β2 nAChR Subtype, sequence (P09483 31-630): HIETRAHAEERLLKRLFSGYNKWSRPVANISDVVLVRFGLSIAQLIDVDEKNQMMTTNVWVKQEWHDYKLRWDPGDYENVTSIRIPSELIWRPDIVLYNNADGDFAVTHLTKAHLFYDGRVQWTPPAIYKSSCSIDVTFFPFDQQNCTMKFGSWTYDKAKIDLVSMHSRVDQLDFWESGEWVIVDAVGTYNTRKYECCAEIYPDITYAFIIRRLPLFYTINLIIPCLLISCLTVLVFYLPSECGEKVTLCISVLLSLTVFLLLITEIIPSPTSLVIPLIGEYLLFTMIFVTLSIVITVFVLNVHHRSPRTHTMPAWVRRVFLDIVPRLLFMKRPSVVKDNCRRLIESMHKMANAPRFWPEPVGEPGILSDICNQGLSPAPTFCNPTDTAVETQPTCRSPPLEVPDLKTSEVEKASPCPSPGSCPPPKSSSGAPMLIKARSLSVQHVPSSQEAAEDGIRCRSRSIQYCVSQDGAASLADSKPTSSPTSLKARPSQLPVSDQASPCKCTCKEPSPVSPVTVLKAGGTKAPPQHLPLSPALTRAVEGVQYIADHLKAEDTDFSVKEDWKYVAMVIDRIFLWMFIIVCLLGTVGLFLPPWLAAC
α4β2 nAChR Subtype, sequence (P12390 25-500): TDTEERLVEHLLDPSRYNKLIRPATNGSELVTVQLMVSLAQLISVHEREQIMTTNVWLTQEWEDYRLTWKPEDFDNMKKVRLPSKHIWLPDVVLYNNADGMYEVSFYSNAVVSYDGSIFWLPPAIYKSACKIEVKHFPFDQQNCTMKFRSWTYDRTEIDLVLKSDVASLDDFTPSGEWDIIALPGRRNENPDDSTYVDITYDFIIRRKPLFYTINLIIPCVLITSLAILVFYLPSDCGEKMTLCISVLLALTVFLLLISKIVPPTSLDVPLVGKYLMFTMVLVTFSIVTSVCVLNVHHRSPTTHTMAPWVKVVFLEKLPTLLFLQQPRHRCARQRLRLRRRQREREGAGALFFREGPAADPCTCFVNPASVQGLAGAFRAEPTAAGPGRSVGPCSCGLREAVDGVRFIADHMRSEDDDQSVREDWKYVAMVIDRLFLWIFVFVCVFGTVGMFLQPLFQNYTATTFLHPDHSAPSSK
Human α4β2, sequence (P43681 29-627 limits assumed): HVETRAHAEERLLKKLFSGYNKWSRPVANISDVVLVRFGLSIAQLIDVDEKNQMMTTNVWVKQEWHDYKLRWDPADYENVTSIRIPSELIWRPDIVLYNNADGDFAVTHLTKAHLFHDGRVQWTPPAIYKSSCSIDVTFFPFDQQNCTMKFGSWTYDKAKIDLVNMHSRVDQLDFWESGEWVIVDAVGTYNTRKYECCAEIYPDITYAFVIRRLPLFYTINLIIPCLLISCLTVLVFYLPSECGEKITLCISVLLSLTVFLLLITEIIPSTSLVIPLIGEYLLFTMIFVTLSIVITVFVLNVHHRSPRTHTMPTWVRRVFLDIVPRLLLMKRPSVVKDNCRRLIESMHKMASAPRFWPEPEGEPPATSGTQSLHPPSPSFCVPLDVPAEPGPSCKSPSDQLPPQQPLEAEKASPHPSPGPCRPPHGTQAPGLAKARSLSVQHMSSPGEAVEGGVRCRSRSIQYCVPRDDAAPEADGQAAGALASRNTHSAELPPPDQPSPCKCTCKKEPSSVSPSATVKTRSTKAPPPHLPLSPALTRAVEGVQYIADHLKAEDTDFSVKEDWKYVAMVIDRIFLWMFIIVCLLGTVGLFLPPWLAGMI
Human α4β2, sequence (P17787 26-502): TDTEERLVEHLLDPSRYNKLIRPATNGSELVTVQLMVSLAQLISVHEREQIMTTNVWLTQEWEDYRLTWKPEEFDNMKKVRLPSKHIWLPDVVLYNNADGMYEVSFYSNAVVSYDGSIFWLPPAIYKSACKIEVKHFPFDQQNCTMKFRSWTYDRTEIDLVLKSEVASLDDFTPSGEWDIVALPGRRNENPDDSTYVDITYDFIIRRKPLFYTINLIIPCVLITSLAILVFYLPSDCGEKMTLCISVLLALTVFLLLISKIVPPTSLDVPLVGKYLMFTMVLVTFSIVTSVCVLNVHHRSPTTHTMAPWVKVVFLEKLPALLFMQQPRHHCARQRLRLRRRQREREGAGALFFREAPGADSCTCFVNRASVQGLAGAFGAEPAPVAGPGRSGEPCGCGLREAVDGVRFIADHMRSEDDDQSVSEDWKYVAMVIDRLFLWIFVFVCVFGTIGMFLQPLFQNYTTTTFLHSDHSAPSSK

Regarding `CC(C)OCC(=O)C1C[C@H]2CNC[C@H]2C1.O=C(O)C(F)(F)F` (mixture of isomers) [1-(3-Azabicyclo[3.3.0]oct-7-yl)-2-isopropoxy-1-ethanone trifluoroacetate], the results for the Ki at Human α4β2 and at α4β2 nAChR Subtype (read-out: Rat α4β2 Ki) were 261 nM and 427 nM, respectively.

As for `COCC(=O)C1C[C@H]2CNC[C@H]2C1.O=C(O)C(F)(F)F` (mixture of isomers) [1-(3-azabicyclo[3.3.0]oct-7-yl)-2-methoxy-1-ethanone trifluoroacetate], the Ki on Human α4β2 was 31 nM; at α4β2 nAChR Subtype (read-out: Rat α4β2 Ki), 32 nM.

Turning to `O=C(NCC(F)(F)F)C1C[C@H]2CNC[C@H]2C1.O=C(O)C(F)(F)F` (mixture of isomers) [N-(2,2,2-trifluoroethyl)-3-azabicyclo[3.3.0]octane-7-carboxamide trifluoroacetate], affinity at Human α4β2 was put at a Ki of 261 nM.

Take `CC(=O)C1C[C@H]2CNC[C@H]2C1` (mixture of isomers) [1-(3-azabicyclo[3.3.0]oct-7-yl)-1-ethanone]: the inhibition constant Ki on α7 nAChR Subtype (setting [1]) is more than 10000 nM; at Human α4β2, 10.7 nM; on α4β2 nAChR Subtype (read-out: Rat α4β2 Ki), 7.3 nM.

`CC(C)(C)C(=O)C1C[C@H]2CNC[C@H]2C1` (mixture of isomers) [1-(3-azabicyclo[3.3.0]oct-7-yl)-2,2-dimethyl-1-propanone]: the inhibition at 5 µM at α7 nAChR Subtype was less than 50%. In addition, the Ki turned out to be 4.2 nM at Human α4β2 and 21.4 nM at α4β2 nAChR Subtype (read-out: Rat α4β2 Ki).

Consider `CCC(C)C(=O)C1C[C@H]2CNC[C@H]2C1` (mixture of isomers) [1-(3-azabicyclo[3.3.0]oct-7-yl)-2-methyl-1-butanone], for which the inhibition at 5 µM at α7 nAChR Subtype was less than 50%. Moreover, the values for the inhibitory constant (Ki) at Human α4β2 and on α4β2 nAChR Subtype (read-out: Rat α4β2 Ki) were 3.3 nM and 11.1 nM, respectively.

On to `CC(C)C(=O)C1C[C@H]2CNC[C@H]2C1` (mixture of isomers) [1-(3-azabicyclo[3.3.0]oct-7-yl)-2-methyl-1-propanone], for which the Ki on α7 nAChR Subtype was 2380 nM; at Human α4β2 it was 0.2 nM; at α4β2 nAChR Subtype (Rat α4β2 Ki), 0.3 nM.

In the case of `CC(C)CC(=O)C1C[C@H]2CNC[C@H]2C1` (mixture of isomers) [1-(3-azabicyclo[3.3.0]oct-7-yl)-3-methyl-1-butanone], the inhibition at 5 µM at α7 nAChR Subtype was less than 50%. Also, the Ki was 4.6 nM at Human α4β2 and 27.3 nM at α4β2 nAChR Subtype (read-out: Rat α4β2 Ki).

In the case of `CC(CF)OC(=O)C1C[C@H]2CNC[C@H]2C1` (mixture of isomers) [1-fluoroprop-2-yl 3-azabicyclo[3.3.0]octane-7-carboxylate], the inhibition at 5 µM on α7 nAChR Subtype was less than 50%. Also, the Ki was found to be 112 nM on Human α4β2 and 271 nM at α4β2 nAChR Subtype (read-out: Rat α4β2 Ki).

As to `O=C(OCCF)C1C[C@H]2CNC[C@H]2C1` (mixture of isomers) [2-fluoroethyl 3-azabicyclo[3.3.0]octane-7-carboxylate], the inhibition at 5 µM on α7 nAChR Subtype is less than 50%. The Ki on Human α4β2 is 102 nM; on α4β2 nAChR Subtype (read-out: Rat α4β2 Ki), 55.1 nM.

As to `NC(=O)C1C[C@H]2CNC[C@H]2C1` (mixture of isomers) [3-azabicyclo[3.3.0]octane-7-carboxamide], the Ki on α7 nAChR Subtype was 8280 nM; on Human α4β2, 320 nM; at α4β2 nAChR Subtype (read-out: Rat α4β2 Ki) it was 394 nM.

On to `O=C(c1occc1Br)C1C[C@H]2CNC[C@H]2C1` (mixture of isomers) [3-bromofuran-2-yl(3-azabicyclo[3.3.0]oct-7-yl)methanone], for which the inhibition at 5 µM at α7 nAChR Subtype was less than 50%. In addition, the inhibition constant Ki at Human α4β2 amounted to 0.9 nM; at α4β2 nAChR Subtype (read-out: Rat α4β2 Ki) it was 2.8 nM.

For the molecule `O=C(c1ccc(F)cc1)C1C[C@H]2CNC[C@H]2C1` (mixture of isomers) [4-fluorophenyl(3-azabicyclo[3.3.0]oct-7-yl)methanone], the inhibition at 5 µM at α7 nAChR Subtype is less than 50%. Moreover, the Ki was 134 nM on Human α4β2 and 321 nM at α4β2 nAChR Subtype (read-out: Rat α4β2 Ki).

As to `Cc1ccc(C(=O)C2C[C@H]3CNC[C@H]3C2)o1` (mixture of isomers) [5-methylfuran-2-yl(3-azabicyclo[3.3.0]oct-7-yl)methanone], the inhibition at 5 µM on α7 nAChR Subtype is less than 50%. In addition, the results for the Ki at Human α4β2 and at α4β2 nAChR Subtype (read-out: Rat α4β2 Ki) were 37 nM and 74.3 nM, respectively.

With `O=C(C1C[C@H]2CNC[C@H]2C1)N1CCCCO1` (mixture of isomers) [(3-azabicyclo[3.3.0]oct-7-yl)(1-oxazinan-2-yl)methanone], the Ki at α7 nAChR Subtype (setting [1]) was not below 10000 nM; on Human α4β2 it was 5.5 nM; on α4β2 nAChR Subtype (read-out: Rat α4β2 Ki), 17.4 nM.

With `O=C(C1C[C@H]2CNC[C@H]2C1)N1CC=CCC1` (mixture of isomers) [(3-azabicyclo[3.3.0]oct-7-yl)(2,3,6-trihydropyridin-1-yl)methanone], the inhibition at 5 µM on α7 nAChR Subtype is less than 50%. For the same molecule, the Ki at Human α4β2 amounted to 28.4 nM; at α4β2 nAChR Subtype (read-out: Rat α4β2 Ki), 46.3 nM.

For the molecule `O=C(C1C[C@H]2CNC[C@H]2C1)N1CCC[C@@H]1CO` (mixture of isomers) [(R)-(2-(hydroxymethyl)-1-pyrrolidinyl)(3-azabicyclo[3.3.0]oct-7-yl)methanone], the inhibition at 5 µM at α7 nAChR Subtype is less than 50%. Further, the Ki on Human α4β2 turned out to be 255 nM; on α4β2 nAChR Subtype (read-out: Rat α4β2 Ki) it was 387 nM.

For `O=C(C1C[C@H]2CNC[C@H]2C1)N1CCC[C@H]1CO` (mixture of isomers) [(S)-(2-(hydroxymethyl)-1-pyrrolidinyl)(3-azabicyclo[3.3.0]oct-7-yl)methanone], at α7 nAChR Subtype, the inhibition at 5 µM is less than 50%. The Ki amounted to 271 nM at Human α4β2 and 537 nM on α4β2 nAChR Subtype (read-out: Rat α4β2 Ki).

`O=C(OCc1ccoc1)C1C[C@H]2CNC[C@H]2C1` (mixture of isomers) [(furan-3-yl)methyl 3-azabicyclo[3.3.0]octane-7-carboxylate]: at α7 nAChR Subtype, the inhibition at 5 µM is less than 50%. Further, the Ki on Human α4β2 came to 16.3 nM; at α4β2 nAChR Subtype (read-out: Rat α4β2 Ki), 19.6 nM.

In the case of `O=C(OCC1CCOC1)C1C[C@H]2CNC[C@H]2C1` (mixture of isomers) [(tetrahydrofuran-3-yl)methyl 3-azabicyclo[3.3.0]octane-7-carboxylate], on α7 nAChR Subtype, the inhibition at 5 µM was less than 50%. Further, the Ki turned out to be 47.7 nM on Human α4β2 and 111 nM at α4β2 nAChR Subtype (read-out: Rat α4β2 Ki).

For `O=C(NCc1ccco1)C1C[C@H]2CNC[C@H]2C1` (mixture of isomers) [N-(2-furanylmethyl)-3-azabicyclo[3.3.0]octane-7-carboxamide], the figures for the Ki on α7 nAChR Subtype, on Human α4β2 and on α4β2 nAChR Subtype (Rat α4β2 Ki) were 74900 nM, 302 nM and 272 nM, respectively.

As for `C=CCNC(=O)C1C[C@H]2CNC[C@H]2C1` (mixture of isomers) [N-allyl-3-azabicyclo[3.3.0]octane-7-carboxamide], the Ki on α7 nAChR Subtype was not below 10000 nM; on Human α4β2, 176 nM; on α4β2 nAChR Subtype (read-out: Rat α4β2 Ki), 419 nM.

Take `CNC(=O)C1C[C@H]2CNC[C@H]2C1` (mixture of isomers) [N-methyl-3-azabicyclo[3.3.0]octane-7-carboxamide]: the Ki at α7 nAChR Subtype was 27300 nM; at Human α4β2, 185 nM; at α4β2 nAChR Subtype (read-out: Rat α4β2 Ki), 81.4 nM.

As to `O=C(OC1CCC1)C1C[C@H]2CNC[C@H]2C1` (mixture of isomers) [cyclobutyl 3-azabicyclo[3.3.0]octane-7-carboxylate], the results for the Ki on α7 nAChR Subtype and on Human α4β2 were more than 10000 nM and 80.6 nM, respectively.

Take `O=C(C1CCCCC1)C1C[C@H]2CNC[C@H]2C1` (mixture of isomers) [cyclohexyl(3-azabicyclo[3.3.0]oct-7-yl)methanone]: on α7 nAChR Subtype, the inhibition at 5 µM was less than 50%. Besides, the inhibition constant Ki on Human α4β2 turned out to be 44.2 nM; on α4β2 nAChR Subtype (read-out: Rat α4β2 Ki), 192 nM.

With `C=CCC(C)OC(=O)C1C[C@H]2CNC[C@H]2C1` (mixture of isomers) [pent-4-en-2-yl 3-azabicyclo[3.3.0]octane-7-carboxylate], the Ki on α7 nAChR Subtype (setting [1]) was more than 10000 nM; on Human α4β2 it was 44.8 nM.

`O=C(CF)C1CC2CNCC2C1` (single isomer, unassigned; isomer 1) [1-(3-azabicyclo[3.3.0]oct-7-yl)-2-fluoro-1-ethanone trifluoroacetate cis isomer, 1-(3-azabicyclo[3.3.0]oct-7-yl)-2-fluoro-1-ethanone trifluoroacetate]: the Ki came out at 6.3 nM at Human α4β2 and 6.8 nM on α4β2 nAChR Subtype (read-out: Rat α4β2 Ki).

Take `O=C(CF)C1CC2CNCC2C1` (single isomer, unassigned; isomer 1) [1-(3-azabicyclo[3.3.0]oct-7-yl)-2-fluoro-1-ethanone trifluoroacetate]: the Ki on Human α4β2 came to 176 nM; at α4β2 nAChR Subtype (read-out: Rat α4β2 Ki), 154 nM.

Turning to `CC(C)C(=O)C1CC2CNCC(C2)C1` (stereo not shown) [1-(3-azabicyclo[3.3.1]non-7-yl)-2-methyl-1-propanone], the figures for the Ki at α7 nAChR Subtype and on Human α4β2 were more than 10000 nM and 78.9 nM, respectively.

In the case of `O=C(C1=CC2CNCC2C1)c1ccco1.O=C(O)C(F)(F)F` (stereo not shown) [2-furanyl(3-azabicyclo[3.3.0]oct-6-en-7-yl)methanone trifluoroacetate], the Ki worked out at 2 nM at Human α4β2 and 8 nM at α4β2 nAChR Subtype (Rat α4β2 Ki).

`O=C(c1ccco1)C1CC2CNCC(C2)C1` (stereo not shown) [2-furanyl(3-azabicyclo[3.3.1]non-7-yl)methanone]: the Ki was more than 10000 nM on α7 nAChR Subtype and 113 nM on Human α4β2.

As to `CC1COCC(C)N1C(=O)C1=C[C@@H]2CNC[C@@H]2C1` (stereo partly shown) [(3-azabicyclo[3.3.0]oct-6-en-7-yl)(2,6-dimethylmorpholin-1-yl)methanone], the inhibition at 5 µM on α7 nAChR Subtype was less than 50%. The Ki at Human α4β2 worked out at 1710 nM.

Turning to `NCCNC(=O)C1CC2CNCC(C2)C1` (stereo not shown) [N-(2-aminoethyl)-3-azabicyclo[3.3.1]nonane-7-carboxamide], the inhibition at 5 µM on α7 nAChR Subtype was less than 50%. The affinity on Human α4β2 corresponds to a Ki of 52.4 nM.

Turning to `O=C(Nc1cccnc1)C1CC2CNCC(C2)C1` (stereo not shown) [N-(pyridin-3-yl)-3-azabicyclo[3.3.1]nonane-7-carboxamide], the inhibition at 5 µM on α7 nAChR Subtype was less than 50%. At Human α4β2, this molecule had an inhibition constant (Ki) of 46.8 nM.

Take `O=C(Nc1ccccc1)C1CC2CNCC(C2)C1` (stereo not shown) [N-phenyl-3-azabicyclo[3.3.1]nonane-7-carboxamide]: the inhibition at 5 µM on α7 nAChR Subtype was less than 50%. The same molecule returned a Ki on Human α4β2 of 12.7 nM.

Regarding `CN(C)C(=O)[C@H]1C[C@H]2CNC[C@H]2C1` [cis-N,N-dimethyl-3-azabicyclo[3.3.0]octane-7-carboxamide], the inhibition at 5 µM at α7 nAChR Subtype is less than 50%. Further, on Human α4β2, the Ki is 1340 nM.

Take `COC(=O)C1=CC2CNCC2C1.Cl` (stereo not shown) [methyl 3-azabicyclo[3.3.0]-oct-6-ene-7-carboxylate hydrochloride]: the Ki stood at 2 nM on Human α4β2 and 5 nM at α4β2 nAChR Subtype (read-out: Rat α4β2 Ki).

The record behind these values is patent US20100173968A1, “SUB-TYPE SELECTIVE AZABICYCLOALKANE DERIVATIVES” (TARGACEPT, INC., priority 2007, published 2010).
